Results: publication PMC7000700, “RyR1-targeted drug discovery pipeline integrating FRET-based high-throughput screening and human myofiber dynamic Ca^2+ assays” (Scientific Reports, 2020)

How the values were obtained:
[1] = tested on: MH-linked RyR1 mutant; design: method as in PMID 29674523; details: HEK293 cells; cited from earlier work
[2] = target: RyR1 (Sus scrofa, UniProt P16960); assay: F-FKBP binding to RyR1 by co-sedimentation with skeletal SR membranes; design: using co-sedimentation with pig skeletal and cardiac SR membranes; from tissue; host or cells: pig skeletal muscle (heavy SR membranes); species or system pig; details: RyR1, 10 μM Hit, 30 nM Ca2+, 5 mM GSSG or GSH
Method: (§1) The Hit-induced effect on FRET between D-FKBP and A-CaM most likely results from one or the combination of factors, including a shift in CaM and/or FKBP12.6 binding, and/or structure of the RyR complex that shifts the D-A distance. Under the same assay conditions as in the primary screen, we assessed the effect of 10 μM Hit on fluorescent FKBP12.6 (F-FKBP) binding to RyRs, using co-sedimentation with pig skeletal and cardiac SR membranes.
(§2) Supplementary Fig. 3 Effect of HTS Hits on F-FKBP binding to a) RyR1 in skeletal HSR membranes, and b) RyR2
(§3) in cardiac CSR membranes at 30 nM Ca2+ in the presence of 5 mM GSSG or GSH. Results are represented as individual
(§4) data points and means ± SEM, n = 4-5. *P < 0.05 by 2-sided Student’s unpaired t-test. […]

[3] = target: T1, RyR2 (Sus scrofa, UniProt A0A5G2R1W3); assay: [3H]ryanodine binding to cardiac SR vesicles; type: biochemical, porcine; design: RyR1 in skeletal SR membranes, and RyR2 in cardiac SR membranes; from tissue; host or cells: porcine cardiac left ventricle (crude SR vesicles); details: micromolar compound, significant only with CaM at 30 nM Ca2+ and only without CaM at 30 μM Ca2+
Method: To evaluate the functional impact of compounds identified through our FRET-based screen, we first used [^3H]ryanodine binding assays. The level of [^3H]ryanodine binding to RyRs in SR membranes is a well-established index of the RyR channel activity. Given the role of CaM binding in our FRET readout, we investigated whether CaM influences the functional effect of the Hit compounds by carrying out [^3H]ryanodine binding assays in the absence and presence of CaM (300 nM).
Crude sarcoplasmic reticulum (CSR) vesicles were isolated from porcine longissimus dorsi muscle and porcine cardiac left ventricle tissue by differential centrifugation of homogenized tissue. […] Immediately prior to the fluorescence or [^3H]ryanodine binding studies described below, the SR vesicles were stripped of residual endogenous CaM by incubation with a peptide derived from the CaM binding domain of myosin light chain kinase, followed by sedimentation.
In 96-well plates, HSR vesicles (1 mg/ml) and cardiac CSR vesicles (3 mg/mL) were pre-incubated with 0.02% DMSO or Hit compound, with or without 300 nM CaM, for 30 min at 22 °C in a solution containing 150 mM KCl, 5 mM GSSG, 1 µg/mL Aprotinin/Leupeptin, 1 mM EGTA, and 65 µM or 1.02 mM CaCl2 (as determined by MaxChelator to yield 30 nM or 30 μM of free Ca^2+, respectively), 0.1 mg/mL BSA and 20 mM K-PIPES (pH 7.0). […]

[4] = target: T1, RyR2; assay: F-FKBP binding to RyR2 by co-sedimentation with cardiac SR membranes; design: using co-sedimentation with pig skeletal and cardiac SR membranes; from tissue; host or cells: pig cardiac muscle (crude SR membranes); species or system pig; details: RyR2, 10 μM Hit, 30 nM Ca2+, 5 mM GSSG or GSH
Method: as §1, §2, §3, §4

T1 sequence (A0A5G2R1W3 20-4900): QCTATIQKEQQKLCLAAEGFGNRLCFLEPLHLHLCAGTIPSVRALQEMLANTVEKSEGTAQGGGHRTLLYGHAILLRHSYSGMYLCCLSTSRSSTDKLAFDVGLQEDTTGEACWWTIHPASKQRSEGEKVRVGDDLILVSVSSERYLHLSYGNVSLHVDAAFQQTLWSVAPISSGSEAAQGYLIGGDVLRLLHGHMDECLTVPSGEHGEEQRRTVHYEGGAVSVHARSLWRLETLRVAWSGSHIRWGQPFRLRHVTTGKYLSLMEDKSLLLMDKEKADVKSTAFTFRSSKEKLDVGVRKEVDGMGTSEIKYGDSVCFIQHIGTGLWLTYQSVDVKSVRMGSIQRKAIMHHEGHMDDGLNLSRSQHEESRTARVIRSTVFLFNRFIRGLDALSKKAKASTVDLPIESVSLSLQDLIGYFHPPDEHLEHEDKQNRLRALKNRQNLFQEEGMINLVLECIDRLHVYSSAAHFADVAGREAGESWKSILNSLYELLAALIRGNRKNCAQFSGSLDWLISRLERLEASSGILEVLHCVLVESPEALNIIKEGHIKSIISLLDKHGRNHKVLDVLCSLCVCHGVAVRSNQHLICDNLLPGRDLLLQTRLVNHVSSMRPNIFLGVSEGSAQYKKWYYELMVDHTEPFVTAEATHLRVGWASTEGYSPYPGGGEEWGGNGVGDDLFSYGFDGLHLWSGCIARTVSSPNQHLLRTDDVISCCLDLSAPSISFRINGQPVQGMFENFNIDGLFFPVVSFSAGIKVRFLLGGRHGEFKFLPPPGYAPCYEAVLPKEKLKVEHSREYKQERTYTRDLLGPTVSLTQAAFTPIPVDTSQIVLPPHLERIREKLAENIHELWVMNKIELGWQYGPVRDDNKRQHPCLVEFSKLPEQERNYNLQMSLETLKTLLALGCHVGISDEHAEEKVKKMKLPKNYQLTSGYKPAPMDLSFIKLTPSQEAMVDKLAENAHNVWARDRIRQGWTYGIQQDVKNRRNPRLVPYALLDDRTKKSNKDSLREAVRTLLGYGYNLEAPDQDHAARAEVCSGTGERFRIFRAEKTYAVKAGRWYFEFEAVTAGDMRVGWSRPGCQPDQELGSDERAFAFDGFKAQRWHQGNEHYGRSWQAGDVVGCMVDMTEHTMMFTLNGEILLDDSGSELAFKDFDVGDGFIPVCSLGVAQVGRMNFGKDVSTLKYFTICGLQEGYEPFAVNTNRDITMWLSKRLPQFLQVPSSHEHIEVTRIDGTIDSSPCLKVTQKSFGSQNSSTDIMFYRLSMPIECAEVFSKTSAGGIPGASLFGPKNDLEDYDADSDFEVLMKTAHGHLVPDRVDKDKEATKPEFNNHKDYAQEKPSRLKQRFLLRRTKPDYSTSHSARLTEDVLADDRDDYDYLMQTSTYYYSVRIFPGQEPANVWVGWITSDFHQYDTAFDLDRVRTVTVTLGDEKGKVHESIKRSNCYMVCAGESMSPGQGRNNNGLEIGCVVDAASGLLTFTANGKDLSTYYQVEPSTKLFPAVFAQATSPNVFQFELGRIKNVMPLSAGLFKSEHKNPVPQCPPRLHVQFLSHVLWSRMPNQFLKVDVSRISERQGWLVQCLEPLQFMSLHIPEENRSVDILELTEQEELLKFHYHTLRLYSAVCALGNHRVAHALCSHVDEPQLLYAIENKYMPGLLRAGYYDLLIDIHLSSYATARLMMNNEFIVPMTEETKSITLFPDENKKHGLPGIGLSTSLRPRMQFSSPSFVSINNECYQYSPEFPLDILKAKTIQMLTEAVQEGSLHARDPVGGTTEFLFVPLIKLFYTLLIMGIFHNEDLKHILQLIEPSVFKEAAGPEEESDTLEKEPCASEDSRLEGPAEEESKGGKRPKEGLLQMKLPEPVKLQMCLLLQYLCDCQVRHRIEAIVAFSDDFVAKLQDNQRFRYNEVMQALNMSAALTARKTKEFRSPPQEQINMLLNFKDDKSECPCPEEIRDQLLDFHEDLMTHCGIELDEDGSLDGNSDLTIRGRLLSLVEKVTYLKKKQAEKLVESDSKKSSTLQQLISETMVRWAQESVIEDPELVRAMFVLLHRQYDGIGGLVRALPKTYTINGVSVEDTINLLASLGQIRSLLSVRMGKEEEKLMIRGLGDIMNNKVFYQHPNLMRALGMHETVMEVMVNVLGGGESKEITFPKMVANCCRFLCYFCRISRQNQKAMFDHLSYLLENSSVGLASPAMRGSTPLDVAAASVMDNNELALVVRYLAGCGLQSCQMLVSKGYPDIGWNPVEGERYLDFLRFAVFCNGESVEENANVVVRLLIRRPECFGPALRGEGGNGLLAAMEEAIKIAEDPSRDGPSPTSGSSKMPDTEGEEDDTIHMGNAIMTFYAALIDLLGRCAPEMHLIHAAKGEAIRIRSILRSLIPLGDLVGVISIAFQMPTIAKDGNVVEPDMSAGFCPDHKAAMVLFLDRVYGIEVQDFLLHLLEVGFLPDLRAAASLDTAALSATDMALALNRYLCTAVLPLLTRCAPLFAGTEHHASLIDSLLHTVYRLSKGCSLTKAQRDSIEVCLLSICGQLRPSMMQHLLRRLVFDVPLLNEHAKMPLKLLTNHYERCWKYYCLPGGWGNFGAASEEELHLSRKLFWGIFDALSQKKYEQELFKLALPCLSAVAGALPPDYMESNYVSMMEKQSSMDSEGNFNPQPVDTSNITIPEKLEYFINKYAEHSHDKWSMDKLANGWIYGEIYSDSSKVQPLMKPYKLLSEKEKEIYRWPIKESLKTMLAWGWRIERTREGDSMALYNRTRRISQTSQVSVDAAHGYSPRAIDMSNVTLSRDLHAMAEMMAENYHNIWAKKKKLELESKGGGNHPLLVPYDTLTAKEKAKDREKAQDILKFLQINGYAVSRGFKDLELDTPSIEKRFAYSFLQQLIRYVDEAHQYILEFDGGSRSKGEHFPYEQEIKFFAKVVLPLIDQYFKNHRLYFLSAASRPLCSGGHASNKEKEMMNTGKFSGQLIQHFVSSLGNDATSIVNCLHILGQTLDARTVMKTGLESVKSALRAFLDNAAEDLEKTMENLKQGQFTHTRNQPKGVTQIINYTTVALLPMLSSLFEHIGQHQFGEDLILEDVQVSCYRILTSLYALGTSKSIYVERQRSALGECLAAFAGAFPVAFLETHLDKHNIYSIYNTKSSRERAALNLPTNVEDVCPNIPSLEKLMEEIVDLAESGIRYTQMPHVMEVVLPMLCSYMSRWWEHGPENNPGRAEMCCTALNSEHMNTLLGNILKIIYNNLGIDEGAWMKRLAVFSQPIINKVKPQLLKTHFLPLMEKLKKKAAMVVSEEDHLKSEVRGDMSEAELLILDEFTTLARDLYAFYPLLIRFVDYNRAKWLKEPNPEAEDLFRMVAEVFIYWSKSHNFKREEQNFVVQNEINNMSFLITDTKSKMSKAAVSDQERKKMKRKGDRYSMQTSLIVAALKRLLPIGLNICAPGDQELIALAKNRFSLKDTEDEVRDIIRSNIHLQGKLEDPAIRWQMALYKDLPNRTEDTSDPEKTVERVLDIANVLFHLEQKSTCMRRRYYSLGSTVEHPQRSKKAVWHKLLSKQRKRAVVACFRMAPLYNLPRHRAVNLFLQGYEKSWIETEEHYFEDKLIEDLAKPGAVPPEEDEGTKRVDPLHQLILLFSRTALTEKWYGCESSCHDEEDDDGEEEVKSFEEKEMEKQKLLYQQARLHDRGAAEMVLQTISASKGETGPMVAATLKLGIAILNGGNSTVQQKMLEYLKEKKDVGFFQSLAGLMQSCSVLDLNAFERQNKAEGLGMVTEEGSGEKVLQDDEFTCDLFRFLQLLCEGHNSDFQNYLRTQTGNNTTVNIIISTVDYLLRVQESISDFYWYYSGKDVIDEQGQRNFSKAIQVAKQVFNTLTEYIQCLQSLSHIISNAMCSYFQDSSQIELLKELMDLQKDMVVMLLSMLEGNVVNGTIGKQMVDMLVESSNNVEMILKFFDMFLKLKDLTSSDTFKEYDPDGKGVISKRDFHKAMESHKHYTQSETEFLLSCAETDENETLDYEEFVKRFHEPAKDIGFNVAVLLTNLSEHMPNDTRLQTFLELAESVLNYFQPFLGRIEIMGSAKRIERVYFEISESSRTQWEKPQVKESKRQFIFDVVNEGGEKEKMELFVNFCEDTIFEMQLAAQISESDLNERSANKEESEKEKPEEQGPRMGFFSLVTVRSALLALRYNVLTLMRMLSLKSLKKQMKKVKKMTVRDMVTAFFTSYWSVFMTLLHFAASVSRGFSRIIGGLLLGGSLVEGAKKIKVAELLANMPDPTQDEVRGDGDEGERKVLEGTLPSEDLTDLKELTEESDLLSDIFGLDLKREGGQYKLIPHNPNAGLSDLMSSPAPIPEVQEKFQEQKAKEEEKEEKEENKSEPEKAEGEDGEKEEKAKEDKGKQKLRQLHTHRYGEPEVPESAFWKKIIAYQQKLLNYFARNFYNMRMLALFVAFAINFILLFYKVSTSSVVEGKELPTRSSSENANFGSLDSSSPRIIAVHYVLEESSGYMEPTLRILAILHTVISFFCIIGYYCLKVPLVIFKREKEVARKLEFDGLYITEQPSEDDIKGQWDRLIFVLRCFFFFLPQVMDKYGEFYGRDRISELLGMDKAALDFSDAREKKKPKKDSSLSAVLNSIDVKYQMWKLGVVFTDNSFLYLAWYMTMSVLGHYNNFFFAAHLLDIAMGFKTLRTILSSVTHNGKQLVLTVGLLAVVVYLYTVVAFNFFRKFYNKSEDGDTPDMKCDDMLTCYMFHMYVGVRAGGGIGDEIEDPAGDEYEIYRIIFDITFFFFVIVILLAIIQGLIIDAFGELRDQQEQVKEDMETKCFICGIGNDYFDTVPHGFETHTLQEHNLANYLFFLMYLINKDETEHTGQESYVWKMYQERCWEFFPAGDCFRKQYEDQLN

Row | SMILES | Effect on readout of ER Ca2+ phenotypic screen [1] | Decrease of F-FKBP binding [2] | Effect on [3H]ryanodine binding [3] | Decrease of F-FKBP binding [4]
1 | Oc1c(Cl)cc(Cl)c2cccnc12 [chloroxine] | increased RyR1 activity |  |  | 
2 | O=c1c(O)c(-c2cc(O)c(O)c(O)c2)oc2cc(O)cc(O)c12 [myricetin] |  | did not alter | only inhibits | did not alter
